Assays:
[1] = Measurement and evaluation of solubility in MEK and CPN; type: physicochemical; conditions: for Solubility CPN wt %: cyclopentanone; for Solubility CPN wt % / Solubility MEK wt %: room temperature, visual observation, 5 wt % increments; for Solubility MEK wt %: methyl ethyl ketone; for Solubility Evaluation: versus comparative compound with the same Ar and side chain portion of Formula (Ia)
Method: Solubility measurements of the synthesized liquid crystal compounds were conducted by the following method. 50 mg of each compound was weighted into a 1.5 mL sample bottle, and solvent was added until the solid component became 40 wt % (75 mg). The solubility was determined to be 40 wt % if clear under visual observation after shaking well manually at room temperature. If undissolved residue was present, solvent was added such that the solid component became 35 wt % (+18 mg). The solubility was determined to be 35 wt % if clear under visual observation after shaking well manually at room temperature. If undissolved residue was present, solvent was added such that the solid component became 30 wt %. Similar operations were performed in increments of 5 wt %, and repeated until the solid component became 5 wt %. If undissolved residue was present, the solubility was determined to be less than 5 wt % (<5 wt %), and measurements were completed. MEK (methyl ethyl ketone) and CPN (cyclopentanone) were utilized as solvents for measuring solubility.
The measured values of solubility were evaluated. The evaluations were conducted by using solubility of a compound of a Comparative Example having Ar (the aromatic ring at the center of General Formula 1) in common with the Examples and a side chain portion represented by Formula (Ia) as a reference, in a manner similar to that in the evaluation of the phase transition temperature. Evaluations of A through C were assigned according to the degree of improvement in solubility from the reference solubility.
(§1) For example, compound (I-1) and (I-2) were compared to Comparative Compound (Ia-1), and Compound (III-3) was compared to Comparative Compound (IIIa-3). The evaluation was carried out based on the following criteria.
A: solubility improved twofold or greater in plural solvents or a single solvent
B: solubility was the same or improved up to twofold in plural solvents or a single solvent
C: no improvement in solubility in plural solvents or a single solvent

[2] = Evaluation of phase transition temperature by polarizing microscope; type: physicochemical; conditions: for Phase Transition Temperature Evaluation of Decrease: versus comparative compound with the same Ar and side chain portion of Formula (Ia)
Text: Here, the temperature at which the compound transitions from the smectic phase to the nematic phase may be easily measured by observation of the composition employing polarized light microscopy. For example, in the nematic phase, a schlieren texture specific to the nematic phase is observed, while the texture transitions to a focal conic fan texture in a smectic A phase. Therefore, the phase transition temperature can be measured by observing the textures with a polarizing microscope while increasing or decreasing the temperature.
The phase transition temperatures of the synthesized liquid crystal compounds of the Examples and Comparative Examples were observed using a polarizing microscope to evaluate the degrees of temperature decrease. Specifically, the compounds of the Examples were compared to the compounds of the Comparative Examples, which have different structures for the side chain portions thereof. That is, the phase transition temperature of a compound of a Comparative Example having Ar (the aromatic ring at the center of General Formula 1) in common with the Examples and a side chain portion represented by Formula (Ia) below was used as a reference. Evaluations of A through C were assigned according to the degree of temperature decrease from the reference phase transition temperature.
as §1
A: decrease in melting point or Sm-N (smectic-nematic) transition temperature is 20° C. or greater
B: decrease in melting point or Sm-N (smectic-nematic) transition temperature is 5° C. or greater and less than 20° C.
C: decrease in melting point or Sm-N (smectic-nematic) transition temperature is less than 5° C.
With respect to the phase transition temperature, the numerical value in parentheses represents the numerical value during temperature decrease, and other numerical values represent a numerical value during temperature increase.

[3] = value in parentheses: during temperature decrease

Compound | melting point [°C] | Solubility CPN wt % [1] [wt %] | Solubility MEK wt % [1] [wt %] | Solubility Evaluation [1] | TNi(° C.) Isotropic Phase Transition Point ([2]; during temperature increase) [°C] | Tsm—N(° C.) Sm—N Transition Point ([2]; during temperature increase) [°C] | Phase Transition Temperature Evaluation of Decrease [2] | TNi(° C.) Isotropic Phase Transition Point [2, 3] | Tsm—N(° C.) Sm—N Transition Point [2, 3]
C=CC(=O)OCCOC(=O)CCC(=O)OCCc1ccc(OC(=O)[C@H]2CC[C@H](C(=O)Oc3ccc(OC(=O)[C@H]4CC[C@H](C(=O)Oc5ccc(CCOC(=O)CCC(=O)OCCOC(=O)C=C)cc5)CC4)c4c3SC(=C(C#N)C#N)S4)CC2)cc1 [Compound I-1] | 108 | 40 | 20 | A (solubility improved twofold or greater in plural solvents or a single solvent) | 172 | 140 | A (decrease in melting point or Sm-N (smectic-nematic) transition temperature is 20 °C or greater) | – | –
C=C(C)C(=O)OCCOC(=O)CCC(=O)OCCc1ccc(OC(=O)[C@H]2CC[C@H](C(=O)Oc3ccc(OC(=O)[C@H]4CC[C@H](C(=O)Oc5ccc(CCOC(=O)CCC(=O)OCCOC(=O)C(=C)C)cc5)CC4)c4c3SC(=C(C#N)C#N)S4)CC2)cc1 [Compound I-2] | 105 | 20 | 10 | A (solubility improved twofold or greater in plural solvents or a single solvent) | 168 | 130 | A (decrease in melting point or Sm-N (smectic-nematic) transition temperature is 20 °C or greater) | – | –
C=CC(=O)OCCCCOC(=O)CCC(=O)OCCc1ccc(OC(=O)[C@H]2CC[C@H](C(=O)Oc3ccc(OC(=O)[C@H]4CC[C@H](C(=O)Oc5ccc(CCOC(=O)CCC(=O)OCCCCOC(=O)C=C)cc5)CC4)c4c3SC(=C(C#N)C#N)S4)CC2)cc1 [Compound I-3] | 107 | 25 | 15 | A (solubility improved twofold or greater in plural solvents or a single solvent) | 156 | 126 | A (decrease in melting point or Sm-N (smectic-nematic) transition temperature is 20 °C or greater) | – | –
C=CC(=O)OCCOCCOC(=O)CCC(=O)OCCc1ccc(OC(=O)[C@H]2CC[C@H](C(=O)Oc3ccc(OC(=O)[C@H]4CC[C@H](C(=O)Oc5ccc(CCOC(=O)CCC(=O)OCCOCCOC(=O)C=C)cc5)CC4)c4c3SC(=C(C#N)C#N)S4)CC2)cc1 [Compound I-5] | 110 | 40 | 15 | A (solubility improved twofold or greater in plural solvents or a single solvent) | 172 | 146 | A (decrease in melting point or Sm-N (smectic-nematic) transition temperature is 20 °C or greater) | – | –
C=CC(=O)OCCOC(=O)COCC(=O)OCCc1ccc(OC(=O)[C@H]2CC[C@H](C(=O)Oc3ccc(OC(=O)[C@H]4CC[C@H](C(=O)Oc5ccc(CCOC(=O)COCC(=O)OCCOC(=O)C=C)cc5)CC4)c4c3SC(=C(C#N)C#N)S4)CC2)cc1 [Compound I-6] | 110 | 20 | 10 | A (solubility improved twofold or greater in plural solvents or a single solvent) | 172 | 146 | A (decrease in melting point or Sm-N (smectic-nematic) transition temperature is 20 °C or greater) | – | –
C=C(C)C(=O)OCCOCCNC(=O)OCCc1ccc(OC(=O)[C@H]2CC[C@H](C(=O)Oc3ccc(OC(=O)[C@H]4CC[C@H](C(=O)Oc5ccc(CCOC(=O)NCCOCCOC(=O)C(=C)C)cc5)CC4)c4c3SC(=C(C#N)C#N)S4)CC2)cc1 [Compound I-7] | 130 | 25 | 10 | A (solubility improved twofold or greater in plural solvents or a single solvent) | 195 | 145 | B (decrease in melting point or Sm-N (smectic-nematic) transition temperature is 5 °C or greater and less than 20° C.) | – | –
C=CC(=O)OCCOC(=O)CCC(=O)OCCc1ccc(OC(=O)[C@H]2CC[C@H](C(=O)Oc3ccc(OC(=O)[C@H]4CC[C@H](C(=O)Oc5ccc(CCOC(=O)CCC(=O)OCCOC(=O)C=C)cc5)CC4)c4c3SC(=C(C#N)C(=O)OCCC(C)(C)O)S4)CC2)cc1 [III-7] | – | 40 | 40 | A (solubility improved twofold or greater in plural solvents or a single solvent) | – | – | A (decrease in melting point or Sm-N (smectic-nematic) transition temperature is 20 °C or greater) | (50) ° C. | –
C=CC(=O)OCCOC(=O)CCC(=O)OCCc1ccc(OC(=O)[C@H]2CC[C@H](C(=O)Oc3cc(CC)c(OC(=O)[C@H]4CC[C@H](C(=O)Oc5ccc(CCOC(=O)CCC(=O)OCCOC(=O)C=C)cc5)CC4)c4c3SC(=C(C#N)C#N)S4)CC2)cc1 [IV-2] | – | 40 | 40 | – | – | – | – | (113) ° C. | (61) ° C.
C=CC(=O)OCCOC(=O)CCC(=O)OCCc1ccc(OC(=O)[C@H]2CC[C@H](C(=O)Oc3cc(C(C)(C)C)c(OC(=O)[C@H]4CC[C@H](C(=O)Oc5ccc(CCOC(=O)CCC(=O)OCCOC(=O)C=C)cc5)CC4)c4c3SC(=C(C#N)C#N)S4)CC2)cc1 [IV-6] | – | 40 | 40 | A (solubility improved twofold or greater in plural solvents or a single solvent) | – | – | A (decrease in melting point or Sm-N (smectic-nematic) transition temperature is 20 °C or greater) | (58) ° C. | –
C=CC(=O)OCCCCCCOc1ccc(OC(=O)[C@H]2CC[C@H](C(=O)Oc3cc(C(C)(C)C)c(OC(=O)[C@H]4CC[C@H](C(=O)Oc5ccc(OCCCCCCOC(=O)C=C)cc5)CC4)c4c3SC(=C(C#N)C#N)S4)CC2)cc1 [IVa-6, reference compound] | – | 10 | <5 | – | – | – | – | (167) ° C. | –
